Test results: ChEMBL document CHEMBL1201862, “PubChem BioAssay data set” (2004)
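48-hour exposure; five concentrations; linearly interpolated endpoints. Here, GI50 denotes the concentration required for 50% inhibition of growth.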 Calls of active or inactive are those of the source. Cut-off read from the data, not from the text of the source: active = GI50 up to about 1.1 µM and inactive = higher.

What was measured:
Test in all cases: NCI tumour cell line growth inhibition, 48 h
M19-MEL = test system: M19-MEL
DMS-114 = test system: DMS-114
SNB-78 = test system: SNB-78
DMS-273 = test system: DMS-273
RXF 631 = test system: RXF 631
KM-20L2 = test system: KM-20L2
XF498 = test system: XF498
DLD-1 = test system: DLD-1
HOP-18 = test system: HOP-18

SMILES | GI50 (M19-MEL) | GI50 (DMS-114) | GI50 (SNB-78) | GI50 (DMS-273) | GI50 (RXF 631) | GI50 (KM-20L2) | GI50 (XF498) | GI50 (DLD-1) | GI50 (HOP-18)
Cc1ccc(NC(=O)CC2Sc3ccccc3NC2=O)c(C)c1 (stereo not given) | 15.3 µM (inactive) | 17.9 µM (inactive) | 24.7 µM (inactive) | 12.2 µM (inactive) | 7.94 µM (inactive) | 10.9 µM (inactive) | 18.2 µM (inactive) | 8.15 µM (inactive) | 11 µM (inactive)
COc1cccc2c1C(CO)N1C(C#N)C3CC(C(=O)O)C(C1C2)N3C (stereo not given) | 3.54 µM (inactive) | 2.21 µM (inactive) | 2.81 µM (inactive) | 2.77 µM (inactive) |  | 3.33 µM (inactive) | 1.61 µM (inactive) | 2.79 µM (inactive) | 
NC(CCSCC(F)F)C(=O)O (stereo not given) | > 100 µM (inactive) | > 100 µM (inactive) | > 100 µM (inactive) | > 100 µM (inactive) | > 100 µM (inactive) | > 100 µM (inactive) | > 100 µM (inactive) | > 100 µM (inactive) | > 100 µM (inactive)
COc1ccc(O)c2c(=O)ccccc12 | > 100 µM (inactive) | > 100 µM (inactive) | > 100 µM (inactive) | > 100 µM (inactive) | > 100 µM (inactive) |  | 2.69 µM (inactive) | > 100 µM (inactive) | 
CC1CCCc2c1c1ccc3c(O)cccc3c1oc2=O (stereo not given) | > 100 µM (inactive) | 19.6 µM (inactive) | 23.1 µM (inactive) | 31.1 µM (inactive) |  | > 100 µM (inactive) | 55 µM (inactive) | > 100 µM (inactive) | 26.6 µM (inactive)
COC(=O)C1(O)c2ccccc2N=C2C1CCN2C (stereo not given) |  | > 100 µM (inactive) | > 100 µM (inactive) |  |  | > 100 µM (inactive) | > 100 µM (inactive) | > 100 µM (inactive) | > 100 µM (inactive)
CC1=CP(=O)(c2ccccc2)C=C(C)C1=C(Cl)Cl (stereo not given) | 12.2 µM (inactive) | 10.8 µM (inactive) | 2.98 µM (inactive) | 3.3 µM (inactive) |  | 2.48 µM (inactive) | 17.4 µM (inactive) | 8.17 µM (inactive) | 18.7 µM (inactive)
COc1cc2c(cc1OC)-c1c(cc(OC)c(OC)c1OC)C2=O | > 100 µM (inactive) | > 100 µM (inactive) |  |  | 92.9 µM (inactive) | > 100 µM (inactive) |  | > 100 µM (inactive) | > 100 µM (inactive)
CCO/S(=N/S(=O)(=O)c1ccccc1)c1ccccc1[N+](=O)[O-] (stereo not given) | > 100 µM (inactive) | > 100 µM (inactive) |  | > 100 µM (inactive) |  | > 100 µM (inactive) | > 100 µM (inactive) | > 100 µM (inactive) | > 100 µM (inactive)
O=C1C2Nc3ccccc3SC2C(=O)N1c1ccc(Br)cc1 (stereo not given) | 57.1 µM (inactive) | 13.5 µM (inactive) | 14.2 µM (inactive) | 21.6 µM (inactive) |  | 33.2 µM (inactive) | 35.6 µM (inactive) | 15.2 µM (inactive) | 
COc1cc(/C=C\c2ccncc2)cc(OC)c1OC |  | 57.3 µM (inactive) | > 100 µM (inactive) | 63.8 µM (inactive) | 64.7 µM (inactive) | 65.3 µM (inactive) | 29.1 µM (inactive) | > 100 µM (inactive) | > 100 µM (inactive)
CCN(CC)CC(C(=O)Nc1c(C)cccc1C)/C(C)=N\NC(=S)NN (stereo not given) | > 100 µM (inactive) |  |  | > 100 µM (inactive) | > 100 µM (inactive) | > 100 µM (inactive) | > 100 µM (inactive) | > 100 µM (inactive) | 
CCOC(=O)NC(=O)c1cn(C2CCCCC2)c(=O)[nH]c1=O | 76.4 µM (inactive) |  | 65.9 µM (inactive) | 73.3 µM (inactive) | > 100 µM (inactive) | 36.3 µM (inactive) | > 100 µM (inactive) | 61.8 µM (inactive) | > 100 µM (inactive)
N#CCc1nc2c(s1)C(=O)c1ccccc1C2=O | 2.84 µM (inactive) | 6.24 µM (inactive) | 20 µM (inactive) | 15.8 µM (inactive) | 18.2 µM (inactive) | 38.4 µM (inactive) |  |  | 13.8 µM (inactive)
CC(C)(C)C(=O)C(c1ccc(-c2cscn2)cc1)c1ccc(-c2cscn2)cc1 | 65 µM (inactive) |  | 18.5 µM (inactive) | 58.3 µM (inactive) | 22.7 µM (inactive) | > 100 µM (inactive) | 27.3 µM (inactive) | > 79.6 µM (inactive) | 67.5 µM (inactive)
NC(=S)NNc1c([N+](=O)[O-])cnn(-c2ccccc2)c1=O | 13.2 µM (inactive) | 17.3 µM (inactive) | 23.3 µM (inactive) | 18.3 µM (inactive) |  | 15.9 µM (inactive) | 18.7 µM (inactive) | 14.4 µM (inactive) | 
COc1cc2c[n+]3ccc4cc(OC)c(OC)cc4c3cc2cc1O | > 100 µM (inactive) |  |  |  | > 100 µM (inactive) | > 100 µM (inactive) | > 100 µM (inactive) | > 100 µM (inactive) | > 100 µM (inactive)
CCOC(=O)NC(=O)c1cn(CCCOC(=O)NCCCCCCNC(=O)OCCCn2c(=O)c(C(=O)NC(=O)OCC)cn(C)c2=O)c(=O)n(C)c1=O | > 100 µM (inactive) | > 100 µM (inactive) |  | > 100 µM (inactive) | > 100 µM (inactive) | > 100 µM (inactive) |  | > 100 µM (inactive) | 52.4 µM (inactive)
CCOC(=O)C(=O)Nc1nc2ccc(OC)cc2s1 | > 100 µM (inactive) |  | > 100 µM (inactive) | > 100 µM (inactive) |  | > 100 µM (inactive) |  | > 100 µM (inactive) | > 100 µM (inactive)
c1c[nH]c(Cc2nc(Cc3c[nH]cn3)c[nH]2)n1 | 15.4 µM (inactive) | 16.3 µM (inactive) |  | 15.2 µM (inactive) |  | 0.946 µM (active) | 25.8 µM (inactive) | 4.22 µM (inactive) | 8.28 µM (inactive)
Nc1ncnc2c1ncn2C1(CO)OC(CO)C(O)C1O (stereo not given) |  | > 100 µM (inactive) | > 100 µM (inactive) | > 100 µM (inactive) | > 100 µM (inactive) | > 100 µM (inactive) | > 100 µM (inactive) | > 100 µM (inactive) | > 100 µM (inactive)
CC1(C)COC(C2(C)C(=O)C=C(c3ccccc3)c3ccccc32)=N1 (stereo not given) | 42.8 µM (inactive) | 38.7 µM (inactive) |  |  | 33 µM (inactive) | 40.5 µM (inactive) |  | 66.4 µM (inactive) | > 100 µM (inactive)
Clc1cc2nc[nH]c2cc1Cl | > 100 µM (inactive) | > 100 µM (inactive) | > 100 µM (inactive) | > 100 µM (inactive) |  |  | 20.1 µM (inactive) | > 100 µM (inactive) | > 100 µM (inactive)
